This is an account of results in PubChem BioAssay (NCI).

Each structure is given as a SMILES string.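 Grown in 96-well plates, cells were treated for 48 hours with each compound at five concentrations. Insufficient inhibition: endpoint recorded as highest concentration tested. GI50 marks 50% less growth. At the TGI there is no net growth.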 Where only a bound is given, the exact number is not on record here.

What all share (assay): inhibition of tumour cell growth, NCI panel, 48 h
For test [1], the system named is SF-295 CNS.
The test system of test [2] is OVCAR-4 ovarian.
The test system of test [3] is SF-268 CNS.
Test [4] has as its system SK-MEL-28 melanoma.
The test system of test [5] is NCI-H23 lung.
Test [6] has as its system K-562 leukemia.
Test [7] concerns U251 CNS.
For test [8], the system named is RPMI-8226 leukemia.
The subject of test [9] is UACC-62 melanoma.
For test [10], the system named is SR leukemia.

Turning to `COc1cccc(N=Cc2c3ccccc3c(=O)n3c2oc2ccccc23)c1`, the GI50 in [1] is 4.53 µM; in [2], above 100 µM; in [3] it was 37.1 µM; in [4], above 100 µM; in test [5], 13.3 µM; in test [6], 2.09 µM. The GI50 in test [7] was 7.67 µM; in test [8] it was 6.54 µM; in [9], 2.58 µM. Moreover, the TGI in test [1] was 30.1 µM; in [2], above 100 µM; in test [3], above 100 µM; in test [4], above 100 µM; in [5], 59 µM; in test [6], 6.05 µM. The TGI is above 100 µM in test [7], 42.6 µM in test [8] and 12.9 µM in test [9].
Consider `O=[N+]([O-])c1ccc2nnnn2c1`, for which the TGI in test [1] is above 100 µM; in test [2], above 100 µM; in test [3], above 100 µM; in test [4], 61.8 µM; in [10], 87.1 µM; in test [5], above 100 µM. Further, the figures for the TGI in [6], in [7] and in test [9] were above 100 µM, 84.9 µM and above 100 µM, respectively.
Take `CCCCNC(=O)NS(=O)(=O)c1ccc(N2N=C(c3ccc(C)cc3C)CC2c2ccc(N(C)C)cc2)cc1` (centres undefined): the GI50 in test [2] is 5.41 µM; in test [3], 5.73 µM; in test [4] it was 2.56 µM; in test [5] it was 4.92 µM; in [6], 3.58 µM; in test [7], 3.59 µM. In addition, the figures for the GI50 in test [8] and in test [9] were 2.99 µM and 2.18 µM, respectively. In addition, the TGI was above 100 µM in test [2]; above 100 µM in [3]; 7.96 µM in test [4]; above 100 µM in [5]; above 100 µM in test [6]; 27.6 µM in [7]. Moreover, the figures for the TGI in test [8] and in test [9] were 9.66 µM and 6.12 µM, respectively.
Turning to `COc1cc(-c2c(C#N)c(N)n3c(nc4ccccc43)c2C#N)cc(Br)c1OC`, the GI50 in test [1] is above 100 µM; in [3], 77.5 µM; in [4], above 100 µM; in [6], above 100 µM; in [7] it was 4.47 µM; in test [8], 6.83 µM. The GI50 in test [9] was 28.3 µM. The TGI in test [1], in test [3], in [4], in test [6], in test [7] and in test [8] was above 100 µM throughout. In addition, in test [9], the TGI was above 100 µM.
As for `NC1C2(CCCCCC2)NC(=O)C12CCCCCC2` (centres undefined), the TGI in test [1], in test [2], in test [3], in [4], in test [10] and in test [5] was above 100 µM each time. The TGI in test [6], in [7] and in test [9] was above 100 µM each time.
Regarding `O=C1C2=C(CC3C(C2)C3(Br)Br)C(=O)C2=C1CC1C(C2)C1(Br)Br` (centres undefined), the TGI in [1], in test [2], in [3], in test [4], in test [10] and in [5] was above 100 µM each time. The TGI in test [6], in test [7] and in test [9] was above 100 µM throughout.
As for `Nc1c(-c2ccc(Br)cc2)[n+]([O-])c2ccccc2[n+]1[O-]`, the TGI in test [1], in test [2], in test [3], in [4], in test [5] and in [6] was above 100 µM each time. In addition, the TGI was above 100 µM in test [7] and 78.3 µM in [8].
Take `CCOC(=O)NC(=O)c1cn(CCCOC(=O)NCCCCCCNC(=O)OCCCn2c(=O)c(C(=O)NC(=O)OCC)cn(C)c2=O)c(=O)n(C)c1=O`: the TGI in test [2], in test [3], in [4], in [5], in test [6] and in test [7] was above 100 µM in each case. The TGI in test [8] and in [9] was above 100 µM each time.
On to `COc1cc(C(=O)O[C@H](C(N)=O)[C@]2(C)CO2)c2ccccc2c1`, for which the GI50 was 20.4 µM in [1]; 10.1 µM in [2]; 14.2 µM in test [3]; 15.6 µM in [4]; 7.95 µM in test [5]; 18.6 µM in test [7]. In addition, the GI50 in test [8] is 22.8 µM; in test [9], 15.9 µM. The TGI in [1] is 37.9 µM; in test [2], 48.6 µM; in test [3] it was 36.7 µM; in [4], 31.5 µM; in test [5], 21.8 µM; in test [7], 35.4 µM. Also, the results for the TGI in [8] and in test [9] were above 100 µM and 29.8 µM, respectively.
`Cc1ccc(N=NC(C(=O)c2ccccc2)C(=O)c2ccccc2)cc1`: the TGI in [1] is above 100 µM; in [2], 61.6 µM; in test [3] it was above 100 µM; in test [4], above 100 µM; in test [5] it was 63.2 µM; in test [6] it was 88.2 µM. The TGI is above 100 µM in [7], 67.4 µM in test [8] and 60.8 µM in [9].
Consider `Cc1c2c(nn1-c1ccc(S(=O)(=O)/N=C3\SCC(=O)N3C(=O)c3ccccc3)cc1)-c1ccccc1CC2`, for which the GI50 in [1] was 21.6 µM; in [2], 77.5 µM; in [3] it was 44.6 µM; in test [4] it was 52.5 µM; in test [10], 69.9 µM; in test [5] it was 27.7 µM. The GI50 in [6] was 79.2 µM; in [7], 23.3 µM; in [9], 18.7 µM. Moreover, the TGI in test [1] is 58.2 µM; in test [2], above 100 µM; in test [3] it was above 100 µM; in test [4], above 100 µM; in test [10], above 100 µM; in [5] it was 73.2 µM. Besides, the TGI in [6] was above 100 µM; in test [7], 62.4 µM; in test [9] it was 37.6 µM.
As for `CSc1nc(NC2OC(COC(C)=O)C(OC(C)=O)C(OC(C)=O)C2OC(C)=O)c2c(OC(C)=O)c(C)c(=O)oc2n1` (centres undefined), the TGI in test [1], in test [2], in [5], in test [6], in [7] and in [8] was above 100 µM in each case. In addition, in test [9], the TGI was above 100 µM.
With `CC(C)(C)C1=CC(=CC=C2C=CN(CCCCCCCCCCCO)C=C2)C=C(C(C)(C)C)C1=O`, the TGI in test [1] worked out at 2.95 µM; in test [2], 3.57 µM; in [3], 3.83 µM; in test [4], 3 µM; in [5] it was 10.6 µM; in test [6] it was 4.87 µM. In addition, the TGI in test [7] worked out at 2.68 µM; in [8] it was 1.94 µM; in test [9], 2.96 µM.
Consider `O=S(O)CCCCSSCCCCSSCCCCS(=O)O`, for which the TGI in [1] is above 100 µM; in test [2] it was 33.9 µM; in test [3] it was above 100 µM; in [4], above 100 µM; in test [5], above 100 µM; in [6], above 100 µM. Also, the TGI in test [7] is above 100 µM; in test [9], 55.3 µM.
As for `CCCCC/C=C/C/C=C/CCCCCCCC1=NC(C)(C)CN1C(C)C`, the GI50 is 1.49 µM in test [1]; 1.55 µM in test [2]; 1.68 µM in test [3]; 1.7 µM in [4]; 1.49 µM in test [5]; 1.53 µM in [7]. In addition, in [9], the GI50 is 1.69 µM. The TGI in test [1] turned out to be 2.83 µM; in test [2] it was 3 µM; in test [3], 3.05 µM; in test [4] it was 3.07 µM; in [5], 3.24 µM; in test [7], 2.87 µM. Besides, in [9], the TGI turned out to be 3.12 µM.
With `O=C(/C=C/c1ccccc1Cl)c1ccccc1Cl`, the TGI in test [1] came out at 51.2 µM; in test [2] it was 41.3 µM; in test [3], 50.5 µM; in test [4], 36.5 µM; in test [5], 52.9 µM; in test [6], 47.7 µM. The figures for the TGI in test [7], in test [8] and in test [9] were 30.8 µM, 44.7 µM and 36.7 µM, respectively.
Turning to `CC(=O)SCCC1c2[nH]c3ccccc3c2CCN1O` (centres undefined), the TGI in test [1], in [2], in test [3], in [4], in test [5] and in test [6] was above 100 µM throughout. Moreover, the TGI in test [7], in test [8] and in test [9] was above 100 µM throughout.
As for `Cc1cccc(C(C)(C)C)c1NC(=O)CCc1n[nH]c(=S)o1`, the TGI in test [1], in test [2], in [3], in [4], in test [5] and in test [6] was above 100 µM each time. Further, the values for the TGI in test [7], in [8] and in test [9] were above 100 µM, 51.6 µM and above 100 µM, respectively.
In the case of `CCc1cccc(C)c1NC(C)=O`, the TGI in [1], in [2], in [4], in [5], in [6] and in test [7] was above 100 µM throughout. In addition, the TGI in test [8] and in test [9] was above 100 µM in each case.
For the compound `CCN(CC)C(=O)C/C(C)=N/NC(=O)c1ccncc1`, the TGI in test [1], in [3], in [4], in test [5], in [6] and in test [7] was above 100 µM in each case. Besides, the TGI in [8] and in [9] was above 100 µM in each case.
For `COc1ccc(C(=O)O)c(Cc2cccc3ccccc23)c1`, the TGI in [1], in test [2], in [3], in test [4], in test [10] and in test [5] was above 100 µM in each case. The TGI in [6], in [7] and in [9] was above 100 µM each time.
As to `CC#CC(=O)Nc1ccccc1CC(c1c[nH]c2ccccc12)c1c[nH]c2ccccc12`, the TGI is 58.3 µM in test [1]; 59 µM in test [3]; 29.9 µM in [4]; 38.8 µM in test [5]; 39.2 µM in test [6]; 58.1 µM in [8]. The same compound showed a TGI in test [9] of 28.3 µM.
On to `Cc1ccc(C(=O)/C=C/c2ccccc2O)c(C)c1`, for which the TGI in [1], in [2], in test [3], in [4], in test [5] and in test [6] was above 100 µM each time. Besides, the TGI in [7], in test [8] and in test [9] was above 100 µM throughout.
With `CC(=O)NC(CCCN)C(=O)NCc1ccccc1` (centres undefined), the TGI in test [1], in test [2], in [3], in test [4], in test [5] and in test [6] was above 100 µM throughout. Also, the TGI in [7], in test [8] and in [9] was above 100 µM in each case.
With `COc1cc2c3c(n(CCCCl)c(=O)c2cc1OC)-c1ccccc1C3=O`, the GI50 is 0.845 µM in test [1]; above 100 µM in test [3]; 97.3 µM in test [5]; above 100 µM in [6]; 11.9 µM in test [7]; 25.4 µM in [8]. Besides, in test [9], the GI50 was 12.4 µM. The TGI in test [1] was 13.3 µM; in [3] it was above 100 µM; in test [5], above 100 µM; in test [6] it was above 100 µM; in [7], above 100 µM; in test [8], above 100 µM. In test [9], this compound displayed a TGI of 54.9 µM.
With `CCCCn1c(-c2ccc(C(=O)O/N=C(\N)c3ccc(OC)cc3)cc2)nc(-c2ccccc2)c1-c1ccccc1`, the results for the GI50 in [1], in test [4] and in test [9] were 1.53 µM, 2.75 µM and 1.88 µM, respectively. Further, the TGI in test [1] is 2.97 µM; in test [4], above 100 µM; in test [9], 4.58 µM.
